We go through ten molecules from patent US7378404B2, “8β-hydrocarbyl-substituted estratrienes for use as selective estrogens” (priority 2000, dated 2008).

Data set [1] concerns the target T1, estrogen receptor of rat uteri (Rattus norvegicus, UniProt P06211).
T1 construct: The preparation of rat uterus cytosol as well as the receptor test with the ER-containing cytosol; from tissue; host or cells: rat uterus cytosol
T1 sequence (P06211 1-600): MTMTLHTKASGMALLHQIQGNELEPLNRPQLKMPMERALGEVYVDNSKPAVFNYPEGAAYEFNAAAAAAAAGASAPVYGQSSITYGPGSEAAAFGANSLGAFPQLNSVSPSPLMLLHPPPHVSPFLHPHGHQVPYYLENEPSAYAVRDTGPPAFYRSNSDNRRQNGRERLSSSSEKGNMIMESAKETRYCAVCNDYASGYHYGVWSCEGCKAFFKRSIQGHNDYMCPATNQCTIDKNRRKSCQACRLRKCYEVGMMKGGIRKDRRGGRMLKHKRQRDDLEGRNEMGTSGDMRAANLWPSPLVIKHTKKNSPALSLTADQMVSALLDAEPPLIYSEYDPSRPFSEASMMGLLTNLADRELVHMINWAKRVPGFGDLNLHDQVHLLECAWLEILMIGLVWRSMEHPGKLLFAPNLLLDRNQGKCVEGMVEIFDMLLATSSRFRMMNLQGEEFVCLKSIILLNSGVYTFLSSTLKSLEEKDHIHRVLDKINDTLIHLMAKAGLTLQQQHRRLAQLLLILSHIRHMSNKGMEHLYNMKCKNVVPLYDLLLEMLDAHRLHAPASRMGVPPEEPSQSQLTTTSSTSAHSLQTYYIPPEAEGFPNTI
Nature of the data set: Competitive binding with 3H-estradiol to estrogen receptor preparation of rat uterus cytosol. The following applies: for RBA Rat Uterus: Table 2.

In data set [2] the test system is 5HT2a-receptor and serotonin transporter. Nature of the data set: Expression of 5HT2a-receptor and serotonin transporter in ERβ-rich brain areas after one-time administration in rats. It is filed as in vivo. The following applies: rat brain. The protocol: Compared to the effect on the serotonin receptor and transporter expression, the effect on the LH-secretion is measured. […] The density of serotonin receptors and transporters is determined in brain sections using radioactive ligands, and the corresponding mRNA is determined using in situ hybridization. The method is described in the literature: G. Fink & B. E. H. Sumner 1996 Nature 383: 306; B. E. H. Sumner et al. 1999 Molecular Brain Research, in press.

The test system of data set [3] is estrogen receptor of rat prostates. Nature of the data set: Competitive binding with 3H-estradiol to estrogen receptor preparation of rat prostate cytosol. The conditions noted are these: for RBA Rat Prostate: Table 2; for binding affinity to estrogen receptor of rat prostates compared with estrogen receptor of rat uteri: rat prostate ER versus rat uterus ER; for Rat prost. ER (RBA): Table 1, estradiol = 100.

In data set [4] the test system is hERβ. The following applies: estradiol = 100; cited from earlier work.
Data set [5] relates to hERβ. Nature of the data set: Relative binding affinity (RBA) to hERβ, cited from Kuiper et al. Also on record: species or system human. The following applies: quotient of RBA hERβ / hERα. The text has this: In this case, it is assumed that ERβ predominates in the rat prostates over ERα, and ERα predominates in rat uteri over ERβ.

As for `C=C[C@@]12CCc3cc(O)ccc3[C@H]1CC[C@@]1(C)[C@H]2CC[C@@H]1O` [B, 8β-vinyl-estra-1,3,5(10)-triene-3,17β-diol], the “RBA Rat Uterus” value in data set [1] stood at 0.7. Also, in data set [2], the “expression of the serotonin receptor and transporter” value (“expression” below) was “increased expression”. Moreover, in data set [3], the “RBA Rat Prostate” value is reported as 63 and the “binding affinity to estrogen receptor of rat prostates compared with estrogen receptor of rat uteri” value was “higher binding affinity”.
For the molecule `C[C@]12CC[C@@H]3c4ccc(O)cc4CC[C@H]3[C@@H]1C[C@@H](O)[C@@H]2O` [Estriol], the “hERβ RBA” value in the data set on hERβ [4] is on record as 21.
On to `O=c1c(-c2ccc(O)cc2)coc2cc(O)cc(O)c12` [Genisteine, reference compound], for which the “Rat prost. ER (RBA)” value in data set [3] was 10.
With `CC[C@@]12CCc3cc(O)ccc3[C@H]1CC[C@@]1(C)[C@H]2CC[C@@H]1O` [E, 8β-ethyl-estra-1,3,5(10)-triene-3,17β-diol], the “RBA Rat Uterus” value in data set [1] is below 0.3. Moreover, the “expression” value in data set [2] was “increased expression”. Further, in data set [3], the “RBA Rat Prostate” value amounted to 7 and the “binding affinity to estrogen receptor of rat prostates compared with estrogen receptor of rat uteri” value is listed as “higher binding affinity”.
In turn, `COc1ccc2c(c1)CC[C@]1(C)C2=CC[C@@]2(C)[C@H]1CC[C@@H]2O` yielded a melting point of 168 °C.
As to `C[C@]12CC[C@@H]3c4ccc(O)cc4CC[C@H]3[C@@H]1CC[C@H]2O` [17α-Estradiol, reference compound], the “Rat prost. ER (RBA)” value in data set [3] worked out at 1.3.
As for `C[C@]12CC[C@H]3[C@@H](CC=C4C[C@@H](O)CC[C@@]43C)[C@@H]1CC[C@@H]2O` [5-Androstenediol, reference compound], in data set [1] (Table 1, estradiol = 100), the “Rat uterus ER (RBA)” value came to 0.1. Besides, the “hERβ RBA” value with hERβ [4] is 17. For the same molecule, the “Rat prost. ER (RBA)” value in data set [3] was 5. Further, the “prost. ER/uterus ER” value in data set [3] (ratio of RBA rat prostate ER / rat uterus ER) came to 50. In the data set on hERβ [5], this molecule registered an ERβ/ERα of 3.
For `C[C@@]12CCc3cc(O)ccc3[C@H]1CC[C@@]1(C)[C@H]2CC[C@@H]1O` [D, 8β-methyl-estra-1,3,5(10)-triene-3,17β-diol], the “RBA Rat Uterus” value in data set [1] was 1.3. Further, the “expression” value in data set [2] is reported as “increased expression”. Moreover, in data set [3], the “RBA Rat Prostate” value was determined as 67 and the “binding affinity to estrogen receptor of rat prostates compared with estrogen receptor of rat uteri” value is “higher binding affinity”.
For `C=C[C@@]12CCc3cc(O)ccc3C1=CC[C@@]1(C)[C@H]2CC[C@@H]1O` [A, 8β-Vinyl-estra-1,3,5(10),9(11)-tetraene-3,17β-diol], in that order: 1, “increased expression”, 83 and “higher binding affinity”.
In the same order, the values of `C[C@]12CC[C@@H]3c4ccc(O)cc4CC[C@@]3(C=C(F)F)[C@@H]1CC[C@@H]2O` [C, 8β-(2,2-difluorovinyl)-estra-1,3,5(10)-triene-3,17β-diol] are 0.9, “increased expression”, 5 and “higher binding affinity”.

As a reminder, the melting point is the temperature of the solid-liquid transition.
